In patent US20220152012A1 (The Regents of the University of California, priority 2020, published 2022):
Where two headings read alike, the source gives them in different places.

Experiments:
[1] = tested on: human hepatic stellate cells from non-fibrotic subjects; experiment: Prevention of TGF-β or H2O2-induced collagen production (Sirius Red); assay type: cell-based; details: inducer alone: H2O2 25 μM or TGF-β 20 ng/mL, 24 h, vs vehicle
Method: Hepatic stellate cell fibrosis quantification.
Hepatic stellate cell fibrosis was assessed by measuring collagen content by Sirius Red staining kit.

[2] = tested on: human hepatic stellate cells from normal non-fibrosis subjects; experiment: ROS (DCFDA) after oxidative stress induced by palmitic acid or H2O2; assay type: cell-based; details: inducer alone: palmitic acid 0.5 mM or H2O2 25 μM, vs vehicle
Method: Reactive Oxygen Species (ROS) quantification. ROS production, as an index of oxidative stress, in stellate cells was measured using DCFDA fluorescence as described previously. In brief, cells were incubated with DCFDA (10 μmol/L) for 30 min.

[3] = cited from earlier work
[4] = cited from earlier work; remark: listed apart in the source
[5] = cited from earlier work; remark: listed apart in the source

OO [H2O2, hydrogen peroxide]
increase of collagen content [1]: 266%
induction of stellate cell ROS levels [2]: 5.2 fold

CCCCCCCCCCCCCCCC(=O)O [palmitic acid]
induction of stellate cell ROS levels [2]: 3.6 fold

O=C(O[C@H]1[C@H](OC(=O)c2cccnc2)[C@@H](OC(=O)c2cccnc2)[C@H](OC(=O)c2cccnc2)[C@@H](OC(=O)c2cccnc2)[C@H]1OC(=O)c1cccnc1)c1cccnc1 [inositol hexanicotinate]
tolerability ([3]; in vivo): well tolerated
management of dyslipidemia ([3]; vs placebo (Keenan 2010)): no better than placebo
peak plasma level of nicotinic acid ([4]; 1,000 mg of IHN (˜910 mg nicotinic acid equivalent), oral): 0.2 µg/mL
time for hydrolysis of the ester bonds and release of free nicotinic acid ([4]; human serum): more than 48 hours
time of peak plasma levels of free nicotinic acid ([4]; oral doses of 0.8 to 4.2 g of inositol hexanicotinate, humans): 6 to 12 h
gastrointestinal absorption, average of orally ingested dose absorbed ([4]; oral): 70%

TGF-β
increase of collagen content [1]: 233%

O=C(O)c1cccnc1 [niacin, nicotinic acid]
absorption ([5]; oral amounts of 3-4 grams): nearly complete
time of peak plasma levels of free nicotinic acid ([5]; oral dose of 1000 mg of nicotinic acid): 0.5 to 1 h
eliminated by the kidneys as unchanged niacin or nicotinuric acid ([5]; oral pharmacologic dose): Approximately 88%
peak plasma level of nicotinic acid ([5]; single oral dose of 1000 mg nicotinic acid): 30 µg/mL
